Like-named read-outs stand apart in the source and are kept apart here.
Tests used:
[1] = human plasma protein binding by equilibrium dialysis; type: in vitro ADME
HepG2 cells [2] = experiment: Oxygen consumption and extracellular acidification rates, HepG2 (Seahorse); type: cell-based, human; conditions: for EC50: Homo sapiens, 92 min, HepG2, 92 minutes after addition
Protocol: One hundred twenty thousand Snu398 or HepG2 human hepatocellular carcinoma cells per well were plated in XF24 PS or XF96 PET cell culture microplates (Seahorse Biosciences, North Billerica, MA, USA) and allowed to attach and proliferate for 18 h. Cells were equilibrated with DMEM lacking bicarbonate (Seahorse Biosciences) supplemented with glucose at 37°C for 1 h in an incubator lacking CO2. The rate of change of dissolved O2 (oxygen consumption rate, OCR) and rate of change of pH (extracellular acidification rate, ECAR) in medium immediately surrounding the cells was measured in the XF24 Analyzer (Seahorse Biosciences) per manufacturer’s instructions. Compound doses were injected into the wells at the indicated times. For dose response curves, the OCR and ECAR levels obtained in each well before compound addition were subtracted from the values obtained 92 minutes after compound addition.
For XF96 experiments breast cancer cells were seeded in DMEM without bicarbonate at 16,000/well in XF96 V3 PET plates (Seahorse Biosciences) coated with CellTak (BD Biosciences, San Jose, CA, USA). […] HepG2 cells were seeded at 16K/well in XF96 V3 PET plates and left overnight for attachment. The medium was exchanged with DMEM without bicarbonate prior to readings on the XF96 Analyzer (Seahorse Biosciences).

[3] = target: Cannabinoid receptor type 2 (Homo sapiens, UniProt P34972); experiment: Cannabinoid receptor type 2 AG; conditions: agonist; read-out: pEC50 Cannabinoid receptor type 2 AG (converted)
Cannabinoid receptor type 2, sequence (P34972 whole entry): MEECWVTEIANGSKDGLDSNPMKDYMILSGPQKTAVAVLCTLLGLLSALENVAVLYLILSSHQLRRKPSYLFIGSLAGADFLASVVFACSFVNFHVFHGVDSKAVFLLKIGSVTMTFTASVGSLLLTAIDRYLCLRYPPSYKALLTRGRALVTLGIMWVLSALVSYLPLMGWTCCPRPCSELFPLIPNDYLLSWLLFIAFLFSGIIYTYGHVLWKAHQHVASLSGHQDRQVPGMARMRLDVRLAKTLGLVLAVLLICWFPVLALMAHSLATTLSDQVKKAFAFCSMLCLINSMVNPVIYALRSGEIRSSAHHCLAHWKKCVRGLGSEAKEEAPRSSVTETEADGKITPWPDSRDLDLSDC
Source text: (§1) ANT = antagonist (pIC50), AG = agonist (pEC50). pIC50 and pEC50 are the negative logarithms10 of IC50 and EC50, respectively. Click here for file

cancer cell lines = experiment: Lactate production assay, panel of cancer cell lines; conditions: Homo sapiens, read-out: lactate production EC50 across cell lines
Snu398 cells [4] = experiment: Compound cellular permeability assay, whole-cell extract; type: in vitro ADME, human; conditions: Snu398 treated with 1 μM for 1.5 h
Protocol: Compound cellular permeability assays For cytosolic permeability assay, twelve million Snu398 cells were allowed to attach overnight and treated with DMSO control or 1 µM Compound 2 for 1.5 h in 1.7 mM glucose medium. The medium was removed, cells were washed in phosphate-buffered saline (PBS), and cytosolic extracts were prepared by solubilization in Qproteome lysis buffer (Qiagen, Valencia, CA). For whole-cell permeability assay, 75,000 Snu398 cells/well were plated in 96-well plates and treated with DMSO control or 1 µM compounds for 1.5h in low glucose medium. The medium was removed, cells were washed in PBS and solubilized in 50:50 mixture of methanol and acetonitrile. Compound concentration in the cytosolic or whole-cell extract was determined by LC/MS/MS analysis. An Acquity UPLC system (Waters Inc., Milford, MA) was coupled to an API 4000 or API 5000 triple-quad mass spectrometer (Applied Biosystems). […] Compound concentration in cells was determined by counting the number of cells in sample wells and assuming 3 pL/cell volume.

HepG2 cells [5] = experiment: Cell proliferation and survival, HepG2 (trypan blue, Vi-Cell); type: cell-based, human; conditions: 4 to 8 days
Protocol: Sixty thousand Snu398 cells per well were plated in 6-well tissue culture plates in RPMI-1640 medium supplemented with 2.5% charcoal-stripped FBS (Life Technologies). Cells were allowed to attach overnight and then DMSO control or the indicated doses of LDHA inhibitor dissolved in DMSO were added directly to the wells. After 4 to 8 days of incubation in the indicated oxygen conditions, adherent cells were trypsinized, counted, and had their viability assessed by the trypan-blue exclusion method using the Vi-Cell XR Cell Viability Analyzer (Beckman Coulter, Brea, CA, USA). The same procedure was carried out for HepG2 cells, except non-charcoal-stripped FBS was used. For PARP cleavage analysis, both floating and adherent cells were collected after 24 h and the whole-cell extracts were prepared in radioimmunoprecipitation assay (RIPA) buffer (Sigma-Aldrich) supplemented with protease and phosphatase inhibitor cocktails (Sigma-Aldrich). Solubilized proteins were separated by SDS-PAGE, transferred onto nitrocellulose membrane, and detected with each specific antibody.

Muscarinic Receptor M1 = target: T1, Muscarinic Receptor M1 (Homo sapiens, UniProt P11229); experiment: Muscarinic Receptor M1 ANT; conditions: antagonist; read-out: pIC50 Muscarinic Receptor M1 ANT (converted)
T1 sequence (P11229 1-460): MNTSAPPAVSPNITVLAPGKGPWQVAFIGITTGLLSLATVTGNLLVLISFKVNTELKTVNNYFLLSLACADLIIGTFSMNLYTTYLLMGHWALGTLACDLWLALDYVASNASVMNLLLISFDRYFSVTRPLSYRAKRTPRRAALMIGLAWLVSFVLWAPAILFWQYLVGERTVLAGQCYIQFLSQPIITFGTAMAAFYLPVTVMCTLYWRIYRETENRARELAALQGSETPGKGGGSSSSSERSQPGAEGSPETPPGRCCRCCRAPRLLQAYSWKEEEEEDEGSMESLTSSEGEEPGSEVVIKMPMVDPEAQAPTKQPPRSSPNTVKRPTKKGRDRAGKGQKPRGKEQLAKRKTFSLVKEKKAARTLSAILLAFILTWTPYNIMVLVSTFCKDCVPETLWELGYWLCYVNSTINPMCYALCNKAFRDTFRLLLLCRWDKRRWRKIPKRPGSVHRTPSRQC
Source text: as §1

[6] = test system: permeabilized HepG2 cells; experiment: Seahorse XF96 permeabilized cells (mitochondrial function); type: cell-based, human
Protocol: HepG2 cells were seeded overnight in DMEM, 10% FBS, at 16,000 cells/well in an XF96 V3 PET plate. The next day, the medium was removed, and the wells were rinsed and filled with mitochondrial assay solution (MAS: 70 mM sucrose, 220 mM mannitol, 10 mM KH2PO4, 5 mM MgCl2, 2 mM HEPES, 1.0 mM EGTA) containing 10 mM pyruvate/10 mM malate/4 mM ADP and 2 nM XF Plasma Membrane Permeabilizer (PMP) (Seahorse Biosciences). […]. OCR and ECAR readings were determined for three cycles (two minutes mixing, two minutes measuring) after each compound addition.

recombinant human LDHB = recombinant human LDHB (Homo sapiens, UniProt P07195); experiment: recombinant human LDHB enzyme assay (lactate to pyruvate, NADH via diaphorase/resazurin)
recombinant human LDHB, sequence (P07195 whole entry): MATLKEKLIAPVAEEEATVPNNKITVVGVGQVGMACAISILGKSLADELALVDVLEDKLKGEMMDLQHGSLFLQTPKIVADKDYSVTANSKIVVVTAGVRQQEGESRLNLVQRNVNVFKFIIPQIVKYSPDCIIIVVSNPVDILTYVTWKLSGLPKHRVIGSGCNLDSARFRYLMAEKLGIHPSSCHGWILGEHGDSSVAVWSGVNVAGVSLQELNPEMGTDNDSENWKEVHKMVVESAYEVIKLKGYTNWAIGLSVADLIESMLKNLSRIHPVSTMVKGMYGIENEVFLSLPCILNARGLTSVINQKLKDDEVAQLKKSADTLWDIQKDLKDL

Snu398 cells [7] = experiment: Metabolomics analysis, Snu398 whole-cell extracts; type: cell-based, human; conditions: Snu398 whole-cell lysates, 10 μM, 24 h
[8] = target: Glycogen synthase kinase 3b (Homo sapiens, UniProt P49841); experiment: Glycogen synthase kinase 3b ANT; type: biochemical; conditions: antagonist; read-out: pIC50 Glycogen synthase kinase 3b ANT (converted)
Glycogen synthase kinase 3b, sequence (P49841 whole entry): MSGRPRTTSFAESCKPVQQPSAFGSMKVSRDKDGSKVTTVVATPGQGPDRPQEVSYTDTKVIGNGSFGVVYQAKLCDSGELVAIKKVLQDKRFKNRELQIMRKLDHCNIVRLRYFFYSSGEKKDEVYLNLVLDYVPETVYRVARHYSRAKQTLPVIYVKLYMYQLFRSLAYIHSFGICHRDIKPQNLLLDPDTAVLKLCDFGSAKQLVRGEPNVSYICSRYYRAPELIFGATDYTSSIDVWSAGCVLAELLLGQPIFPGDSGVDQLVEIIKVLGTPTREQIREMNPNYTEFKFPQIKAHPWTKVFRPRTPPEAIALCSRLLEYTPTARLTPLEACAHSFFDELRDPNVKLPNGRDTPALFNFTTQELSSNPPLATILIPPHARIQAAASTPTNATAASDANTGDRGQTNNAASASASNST
Source text: as §1

Structure (SMILES) | fraction unbound [1] | oligomycin-dependent OCR (OCROLG) (HepG2 cells [2]; 10 μM) | oligomycin-dependent OCR (OCROLG) (HepG2 cells [2]; 1 to 3 μM, glucose/glutamine medium) | EC50 (HepG2 cells [2]; read-out: ECAR change EC50) [µM] | EC50 (HepG2 cells [2]; read-out: OCR change EC50) [µM] | EC50 [3] [µM] | EC50 (cancer cell lines) [µM] | apparent intracellular concentration versus medium (Snu398 cells [4]) | HepG2 survival (HepG2 cells [5]) | IC50 (Muscarinic Receptor M1) [µM] | concentrations with no changes in OCR or ECAR ([6]; permeabilized HepG2, pyruvate/malate/ADP) | doses with direct mitochondrial effects (reduced mitochondrial respiration) ([6]; permeabilized HepG2, decreased OCR, increased ECAR) [µM] | IC50 (recombinant human LDHB) [µM] | increase of cytosolic glycolysis intermediates (Snu398 cells [7]) [fold] | IC50 [8] [µM]
COc1ncc(-c2ccc3c(Nc4cc(Oc5cc(F)cc(F)c5)cc(C(=O)O)c4)c(S(=O)(=O)NC4CC4)cnc3c2)c(OC)n1 [Compound 1] | 0.013 | OCROLG was reduced | increased oligomycin-dependent OCR | 0.6 ± 0.1 | 0.9 ± 0.3 | 31.6 | ≥ 0.4 | higher apparent intracellular concentrations than that of the medium | did not change HepG2 survival except at the highest dose | 15.8 | up to 3 μM | ≥ 10 | – | – | –
COc1ncc(-c2ccc3c(Nc4cc(C(=O)O)cc(C5CCCC5)c4)c(S(=O)(=O)NC4CC4)cnc3c2)c(OC)n1 [Compound 2] | – | – | – | – | – | 31.6 | – | – | – | 15.8 | – | – | 0.22 ± 0.02 | ≤ 40 | 31.6
